± gives the expanded uncertainty stated by the source.
Experiment: refractive index (other wavelength) (dimensionless)
Conditions: 85 kPa, Liquid, Wavelength=632.8 nm, Minimum Deviation

CCCCCCCC[n+]1ccn(C)c1.F[B-](F)(F)F [1-methyl-3-octylimidazolium tetrafluoroborate]
refractive index (288.81 K): 1.4343 ± 0.0003 | refractive index (290.85 K): 1.4338 ± 0.0003 | refractive index (292.91 K): 1.4332 ± 0.0003 | refractive index (294.95 K): 1.4327 ± 0.0003 | refractive index (297 K): 1.4321 ± 0.0003 | refractive index (297.74 K): 1.4319 ± 0.0003 | refractive index (299.06 K): 1.4316 ± 0.0003 | refractive index (299.31 K): 1.4315 ± 0.0003 | refractive index (300.78 K): 1.4312 ± 0.0003 | refractive index (301.11 K): 1.431 ± 0.0003 | refractive index (302.3 K): 1.4307 ± 0.0003 | refractive index (303.2 K): 1.4304 ± 0.0003 | refractive index (303.84 K): 1.4303 ± 0.0003 | refractive index (305.32 K): 1.4299 ± 0.0003 | refractive index (306.84 K): 1.4295 ± 0.0003 | refractive index (308.35 K): 1.429 ± 0.0003

CCCCCCCO [heptan-1-ol]
refractive index (297.43 K): 1.4217 ± 0.0003 | refractive index (298.87 K): 1.4211 ± 0.0003 | refractive index (300.46 K): 1.4205 ± 0.0003 | refractive index (301.93 K): 1.4199 ± 0.0003 | refractive index (303.44 K): 1.4193 ± 0.0003 | refractive index (305.08 K): 1.4187 ± 0.0003 | refractive index (306.72 K): 1.418 ± 0.0003 | refractive index (308.35 K): 1.4174 ± 0.0003

CCCC(C)O (stereo not given) [pentan-2-ol]
refractive index (289.22 K): 1.407 ± 0.0003 | refractive index (292.33 K): 1.4058 ± 0.0003 | refractive index (295.95 K): 1.4042 ± 0.0003 | refractive index (299.54 K): 1.4027 ± 0.0003 | refractive index (302.62 K): 1.4013 ± 0.0003 | refractive index (306.2 K): 1.3997 ± 0.0003

Reference: the NIST ThermoML archive (doi:10.1016/j.fluid.2015.03.015)
